Data as given in US9738634B2, “Heterocyclic amide compound and herbicide” (SYNGENTA PARTICIPATIONS AG, priority 2013, dated 2017).

Assays:
Type in all cases: in vivo
[1] = system: birds-eye speedwell; assay: Test Example 4: weedkilling efficacy by foliar treatment; p: birds-eye speedwell; details: treatment dosage 315 g/ha
How it was run: (§1)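 Seeds are spot-sown into sterilized diluvial soil and covered with about 1.5 cm of soil. After 14 days' greenhouse growth at 25 to 30° C, plants are sprayed on stems and leaves with diluted emulsion at the stated g/ha rate, then scored at 3 weeks.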

[2] = system: redroot pigweed; assay: Test Example 4: weedkilling efficacy by foliar treatment; L: redroot pigweed; details: treatment dosage 315 g/ha
How it was run: as §1

[3] = system: Italian ryegrass; assay: Test Example 4: weedkilling efficacy by foliar treatment; I: Italian ryegrass; details: treatment dosage 315 g/ha
How it was run: as §1

[4] = system: crabgrass; assay: Test Example 4: weedkilling efficacy by foliar treatment; D: crabgrass; details: treatment dosage 315 g/ha
How it was run: as §1

[5] = system: black-grass; assay: Test Example 3: weedkilling efficacy through soil treatment; H: black-grass; details: treatment dosage 315 g/ha
How it was run: (§2)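 Crop and weed responses were judged three weeks after a uniform surface spray of the water-diluted emulsion at the given g/ha rate. Seeds sat beneath about 1.5 cm of sterilized diluvial soil, and boxes stood in a greenhouse at 25 to 30° C.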

[6] = system: oval-leafed pondweed; assay: Test Example 2: weedkilling efficacy, growth period weed treatment in the submerged state; C: oval-leafed pondweed; details: treatment dosage 252 g/ha
How it was run: (§3)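 Weeds treated at the 1-2 leaf stage by application of diluted emulsion onto floodwater (4 cm depth, alluvial soil) at specified g/ha. Grown in greenhouse at 25 to 30° C; herbicidal effect rated three weeks after treatment.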

[7] = system: soybean; assay: Test Example 3: soil treatment, effect on crop; d: soybean; details: treatment dosage 315 g/ha
How it was run: as §2

[8] = system: corn; assay: Test Example 3: soil treatment, effect on crop; c: corn; details: treatment dosage 315 g/ha
How it was run: as §2

[9] = system: Indian mallow; assay: Test Example 4: weedkilling efficacy by foliar treatment; K: Indian mallow; details: treatment dosage 315 g/ha
How it was run: as §1

[10] = system: Italian ryegrass; assay: Test Example 3: weedkilling efficacy through soil treatment; I: Italian ryegrass; details: treatment dosage 315 g/ha
How it was run: as §2

[11] = system: wheat; assay: Test Example 4: foliar treatment, effect on crop; e: wheat; details: treatment dosage 315 g/ha
How it was run: as §1

[12] = system: birds-eye speedwell; assay: Test Example 3: weedkilling efficacy through soil treatment; p: birds-eye speedwell; details: treatment dosage 315 g/ha
How it was run: as §2

[13] = system: bulrush; assay: Test Example 1: weedkilling efficacy, preemergent weed treatment in the submerged state; B: bulrush; details: treatment dosage 252 g/ha
How it was run: (§4)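 Pots of alluvial soil were flooded to a 4 cm depth. Mixed weed seeds were sown and 2.5 leaf-stage rice seedlings transplanted. On sowing day, water-diluted emulsion was applied to the water surface (dose in g/ha). After 3 weeks at 25–30 °C, effects were rated.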

[14] = system: beet; assay: Test Example 3: soil treatment, effect on crop; f: beet; details: treatment dosage 315 g/ha
How it was run: as §2

[15] = system: bulrush; assay: Test Example 2: weedkilling efficacy, growth period weed treatment in the submerged state; B: bulrush; details: treatment dosage 252 g/ha
How it was run: as §3

[16] = system: wild oat; assay: Test Example 3: weedkilling efficacy through soil treatment; G: wild oat; details: treatment dosage 315 g/ha
How it was run: as §2

[17] = system: transplanted rice; assay: Test Example 1: preemergent weed treatment in the submerged state, effect on crop; a: transplanted rice; details: treatment dosage 252 g/ha
How it was run: as §4

[18] = system: black-grass; assay: Test Example 4: weedkilling efficacy by foliar treatment; H: black-grass; details: treatment dosage 315 g/ha
How it was run: as §1

[19] = system: soybean; assay: Test Example 4: foliar treatment, effect on crop; d: soybean; details: treatment dosage 315 g/ha
How it was run: as §1

[20] = system: corn; assay: Test Example 4: foliar treatment, effect on crop; c: corn; details: treatment dosage 315 g/ha
How it was run: as §1

[21] = system: beet; assay: Test Example 4: foliar treatment, effect on crop; f: beet; details: treatment dosage 315 g/ha
How it was run: as §1

[22] = system: barnyard grass; assay: Test Example 2: weedkilling efficacy, growth period weed treatment in the submerged state; A: barnyard grass; details: treatment dosage 252 g/ha
How it was run: as §3

[23] = system: directly sown rice; assay: Test Example 3: soil treatment, effect on crop; b: directly sown rice; details: treatment dosage 315 g/ha
How it was run: as §2

[24] = system: redroot pigweed; assay: Test Example 3: weedkilling efficacy through soil treatment; L: redroot pigweed; details: treatment dosage 315 g/ha
How it was run: as §2

[25] = system: chickweed; assay: Test Example 4: weedkilling efficacy by foliar treatment; N: chickweed; details: treatment dosage 315 g/ha
How it was run: as §1

[26] = system: barnyard grass; assay: Test Example 1: weedkilling efficacy, preemergent weed treatment in the submerged state; A: barnyard grass; details: treatment dosage 252 g/ha
How it was run: as §4

[27] = system: directly sown rice; assay: Test Example 4: foliar treatment, effect on crop; b: directly sown rice; details: treatment dosage 315 g/ha
How it was run: as §1

[28] = system: fig-leafed goosefoot; assay: Test Example 4: weedkilling efficacy by foliar treatment; M: fig-leafed goosefoot; details: treatment dosage 315 g/ha
How it was run: as §1

[29] = system: green foxtail; assay: Test Example 3: weedkilling efficacy through soil treatment; E: green foxtail; details: treatment dosage 315 g/ha
How it was run: as §2

[30] = system: catchweed; assay: Test Example 4: weedkilling efficacy by foliar treatment; O: catchweed; details: treatment dosage 315 g/ha
How it was run: as §1

[31] = system: chickweed; assay: Test Example 3: weedkilling efficacy through soil treatment; N: chickweed; details: treatment dosage 315 g/ha
How it was run: as §2

[32] = system: Indian mallow; assay: Test Example 3: weedkilling efficacy through soil treatment; K: Indian mallow; details: treatment dosage 315 g/ha
How it was run: as §2

[33] = system: fig-leafed goosefoot; assay: Test Example 3: weedkilling efficacy through soil treatment; M: fig-leafed goosefoot; details: treatment dosage 315 g/ha
How it was run: as §2

[34] = system: green foxtail; assay: Test Example 4: weedkilling efficacy by foliar treatment; E: green foxtail; details: treatment dosage 315 g/ha
How it was run: as §1

[35] = system: wheat; assay: Test Example 3: soil treatment, effect on crop; e: wheat; details: treatment dosage 315 g/ha
How it was run: as §2

[36] = system: oval-leafed pondweed; assay: Test Example 1: weedkilling efficacy, preemergent weed treatment in the submerged state; C: oval-leafed pondweed; details: treatment dosage 252 g/ha
How it was run: as §4

[37] = system: crabgrass; assay: Test Example 3: weedkilling efficacy through soil treatment; D: crabgrass; details: treatment dosage 315 g/ha
How it was run: as §2

Structure (SMILES)	P (birds-eye speedwell) weedkilling efficacy grade [1]	L (redroot pigweed) weedkilling efficacy grade [2]	I (Italian ryegrass) weedkilling efficacy grade [3]	D (crabgrass) weedkilling efficacy grade [4]	H (black-grass) weedkilling efficacy grade [5]	C (oval-leafed pondweed) weedkilling efficacy grade [6]	d (soybean) effect on crop grade [7]	c (corn) effect on crop grade [8]	K (Indian mallow) weedkilling efficacy grade [9]	I (Italian ryegrass) weedkilling efficacy grade [10]	e (wheat) effect on crop grade [11]	P (birds-eye speedwell) weedkilling efficacy grade [12]	B (bulrush) weedkilling efficacy grade [13]	f (beet) effect on crop grade [14]	B (bulrush) weedkilling efficacy grade [15]	a (transplanted rice) effect on crop grade [17]	H (black-grass) weedkilling efficacy grade [18]	d (soybean) effect on crop grade [19]	c (corn) effect on crop grade [20]	f (beet) effect on crop grade [21]	also measured
CC1=C(c2ccsc2)C(=O)N(C(C)(C)C(=O)Nc2nc(C)ns2)CO1 [B-1-01]	4 (weed kill ratio 70% or more, less than 90%)	5 (weed kill ratio 90% or more, (practically complete withering))	5 (weed kill ratio 90% or more, (practically complete withering))	5 (weed kill ratio 90% or more, (practically complete withering))	5 (weed kill ratio 90% or more, (practically complete withering))	5 (weed kill ratio 90% or more, (practically complete withering))	2 (weed kill ratio 20% or more, less than 40%)	0 (weed kill ratio 5% or less (practically no effect))	4 (weed kill ratio 70% or more, less than 90%)	5 (weed kill ratio 90% or more, (practically complete withering))	1 (weed kill ratio 5% or more, less than 20%)	5 (weed kill ratio 90% or more, (practically complete withering))	5 (weed kill ratio 90% or more, (practically complete withering))	3 (weed kill ratio 40% or more, less than 70%)	5 (weed kill ratio 90% or more, (practically complete withering))	4 (weed kill ratio 70% or more, less than 90%)	5 (weed kill ratio 90% or more, (practically complete withering))	4 (weed kill ratio 70% or more, less than 90%)	4 (weed kill ratio 70% or more, less than 90%)	4 (weed kill ratio 70% or more, less than 90%)	G (wild oat) weedkilling efficacy grade [16]: 5 (weed kill ratio 90% or more, (practically complete withering)); A (barnyard grass) weedkilling efficacy grade [22]: 5 (weed kill ratio 90% or more, (practically complete withering)); b (directly sown rice) effect on crop grade [23]: 5 (weed kill ratio 90% or more, (practically complete withering)); L (redroot pigweed) weedkilling efficacy grade [24]: 4 (weed kill ratio 70% or more, less than 90%); N (chickweed) weedkilling efficacy grade [25]: 4 (weed kill ratio 70% or more, less than 90%); A (barnyard grass) weedkilling efficacy grade [26]: 5 (weed kill ratio 90% or more, (practically complete withering)); b (directly sown rice) effect on crop grade [27]: 5 (weed kill ratio 90% or more, (practically complete withering)); M (fig-leafed goosefoot) weedkilling efficacy grade [28]: 5 (weed kill ratio 90% or more, (practically complete withering)); E (green foxtail) weedkilling efficacy grade [29]: 5 (weed kill ratio 90% or more, (practically complete withering)); O (catchweed) weedkilling efficacy grade [30]: 4 (weed kill ratio 70% or more, less than 90%); N (chickweed) weedkilling efficacy grade [31]: 3 (weed kill ratio 40% or more, less than 70%); K (Indian mallow) weedkilling efficacy grade [32]: 3 (weed kill ratio 40% or more, less than 70%); M (fig-leafed goosefoot) weedkilling efficacy grade [33]: 5 (weed kill ratio 90% or more, (practically complete withering)); E (green foxtail) weedkilling efficacy grade [34]: 5 (weed kill ratio 90% or more, (practically complete withering)); e (wheat) effect on crop grade [35]: 4 (weed kill ratio 70% or more, less than 90%); C (oval-leafed pondweed) weedkilling efficacy grade [36]: 5 (weed kill ratio 90% or more, (practically complete withering)); D (crabgrass) weedkilling efficacy grade [37]: 5 (weed kill ratio 90% or more, (practically complete withering))
CC1=C(c2ccccc2)C(=O)N(C(C)(C)C(=O)Nc2cccc(Br)n2)CO1 [B-2-31]	4 (weed kill ratio 70% or more, less than 90%)	5 (weed kill ratio 90% or more, (practically complete withering))	5 (weed kill ratio 90% or more, (practically complete withering))	5 (weed kill ratio 90% or more, (practically complete withering))	5 (weed kill ratio 90% or more, (practically complete withering))	0 (weed kill ratio 5% or less (practically no effect))	0 (weed kill ratio 5% or less (practically no effect))	0 (weed kill ratio 5% or less (practically no effect))	5 (weed kill ratio 90% or more, (practically complete withering))	5 (weed kill ratio 90% or more, (practically complete withering))	5 (weed kill ratio 90% or more, (practically complete withering))	5 (weed kill ratio 90% or more, (practically complete withering))	5 (weed kill ratio 90% or more, (practically complete withering))	5 (weed kill ratio 90% or more, (practically complete withering))	5 (weed kill ratio 90% or more, (practically complete withering))	0 (weed kill ratio 5% or less (practically no effect))	5 (weed kill ratio 90% or more, (practically complete withering))	5 (weed kill ratio 90% or more, (practically complete withering))	4 (weed kill ratio 70% or more, less than 90%)	4 (weed kill ratio 70% or more, less than 90%)	A (barnyard grass) weedkilling efficacy grade [22]: 5 (weed kill ratio 90% or more, (practically complete withering)); b (directly sown rice) effect on crop grade [23]: 5 (weed kill ratio 90% or more, (practically complete withering)); L (redroot pigweed) weedkilling efficacy grade [24]: 5 (weed kill ratio 90% or more, (practically complete withering)); N (chickweed) weedkilling efficacy grade [25]: 5 (weed kill ratio 90% or more, (practically complete withering)); A (barnyard grass) weedkilling efficacy grade [26]: 5 (weed kill ratio 90% or more, (practically complete withering)); b (directly sown rice) effect on crop grade [27]: 5 (weed kill ratio 90% or more, (practically complete withering)); M (fig-leafed goosefoot) weedkilling efficacy grade [28]: 4 (weed kill ratio 70% or more, less than 90%); E (green foxtail) weedkilling efficacy grade [29]: 5 (weed kill ratio 90% or more, (practically complete withering)); O (catchweed) weedkilling efficacy grade [30]: 3 (weed kill ratio 40% or more, less than 70%); N (chickweed) weedkilling efficacy grade [31]: 5 (weed kill ratio 90% or more, (practically complete withering)); K (Indian mallow) weedkilling efficacy grade [32]: 0 (weed kill ratio 5% or less (practically no effect)); M (fig-leafed goosefoot) weedkilling efficacy grade [33]: 4 (weed kill ratio 70% or more, less than 90%); E (green foxtail) weedkilling efficacy grade [34]: 5 (weed kill ratio 90% or more, (practically complete withering)); e (wheat) effect on crop grade [35]: 5 (weed kill ratio 90% or more, (practically complete withering)); C (oval-leafed pondweed) weedkilling efficacy grade [36]: 5 (weed kill ratio 90% or more, (practically complete withering)); D (crabgrass) weedkilling efficacy grade [37]: 5 (weed kill ratio 90% or more, (practically complete withering))
